Measured values as given in patent US11839210B1, “Plant growth promoter with strigolactones regulation activities” (King Abdullah University of Science and Technology, priority 2017, dated 2023).

What was measured:
Zaxinone Synthase (ZAS) = assay: qRT-PCR of ZAS transcript levels in rice after zaxinone or GR24; assay type: in vivo, rice (Nipponbare); settings: phosphate starvation, 5 μM, 6 h
Method: (§1) Total RNA was extracted from the roots and shoots using a Qiagen Plant RNeasy Kit according to the manufacturer's instruction. cDNA was synthesized from 1 μg of total RNA using iScript cDNA Synthesis Kit (BIO-RAD Laboratories, Inc, 2000 Alfred Nobel Drive, Hercules, CA, Cat. No #170-8890) according to instructions in the user manual. For mycorrhizal samples, single-strand cDNA was synthesized from 1 μg of total RNA using Super-Script II (Invitrogen) according to instructions in the user manual. Primers used for real-time quantitative RT-PCR (qRT-PCR) analysis are listed below in Table 3. qRT-PCR was performed using SYBR Green Master Mix (Applied Biosystems; www.lifetechnologies.com) in a StepOnePlus (Life Technologies, Carlsbad, CA, USA). For mycorrhizal samples, qRT-PCR was performed using a Rotor-Gene Q 5plex HRM Platform (Qiagen). The 2-ΔCt method was used to calculate the relative gene expression levels and rice Ubiquitin (OsUBQ or OsRubQ1) gene was used as the internal control to normalize target gene expression.
FIGS. 14A-14C show transcript levels of Zaxinone Synthase (ZAS) in wild type roots and shoots. In FIG. 14A, the relative expression levels of ZAS under normal (+Pi) and phosphate-starved (−Pi) conditions in Nipponbare wild-type (WT) roots and shoots is seen. The expression levels in the WT root were normalized to 1. In FIG. 14B, the relative expression levels of ZAS under −Pi conditions with 5 μM of Zaxinone and GR24 treatment in WT rice root and shoot is seen. Three weeks-old seedlings were transferred to new hydroponic pots containing fresh media with or without chemicals for 6 h. The expression levels in the WT-mock were normalized to 1 and the expression levels were detected by qRT-PCR. Ubiquitin was used as a reference gene. Bars represent mean±SD (n=3). Mock treatment (0.1% acetone). Different letters above each bar denote significant difference following a One-way ANOVA test (P<0.05).

[1] = system: SL biosynthesis genes (D27, CCD7, CCD8 and CO); assay: qRT-PCR of transcript levels of SL biosynthesis genes (all four together) in rice roots; assay type: in vivo; settings: for expression levels of D27, CCD7, CCD8 and CO: −Pi
Method: For the analysis of SL transcript levels in the zas mutant, one week-old seedlings were grown hydroponically in half-strength modified Hoagland nutrient solution with K2HPO4·2H2O (+Pi) and without K2HPO4·2H2O (−Pi) for 7 days. Seedlings were further treated with zaxinone for 6 h and tissues were collected.
as §1
Two week-old seedlings were grown for another one week in −Pi solution and then transferred to new vials containing fresh −Pi solution with and without the indicated concentrations (2.5 μM, 5 μM, 10 μM and 20 μM) of zaxinone for 6 h and samples were collected. SL biosynthetic genes expression for D27 (FIG. 19A), CCD7 […], CCD8 (FIG. 19C), and CO (Carlactone oxidase-FIG. 19D) in WT and zas mutants. […] The expression levels were detected by quantitative RT-PCR. Ubiquitin was used as a reference gene and the expression levels in the WT-mock were normalized to 1. Bars represent mean±SD (n=3). Different letters above each bar denote significant difference following a One-way ANOVA test (P<0.05).
Transcript levels of SL biosynthesis genes, D27 (FIG. 24C), CCD7/D17 (FIG. 24D), CCD8/D10 (FIG. 24E) and OsCO (Carlactone oxidase—FIG. 24F) in root tissues were collected for SL quantification. The expression levels were detected by qRT-PCR. Ubiquitin was used as a reference gene and the expression levels in the WT-mock were normalized to 1. Two week-old seedlings were grown for another one week in −Pi solution and then transferred to new vials containing fresh −Pi solution with and without 5 μM of zaxinone and GR24 for 6 h and samples were collected. Bars represent mean±SD (n=3). Different letters above each bar denote significant difference following a One-way ANOVA test (P<0.05).

[2] = system: Shiokari wild-type and ccd mutant seedlings (d17, d10, d3); assay: Zaxinone effect on root phenotypes of Shiokari wild-type and ccd mutant seedlings; assay type: in vivo, rice (Shiokari)
Method: (§2) For investigation of the zaxinone effect on CCD mutant phenotypes, one week-old seedlings were grown hydroponically in Hoagland nutrient solution containing K2HPO4·2H2O (+Pi) for 3 weeks with 2.5 μM zaxinone treatment or Mock treatment (0.1% acetone). The solution was changed every other day, adding the chemical at each renewal. Plants grown without zaxinone served as the controls and phenotypic data were recorded.
The effect of zaxinone (2.5 μM) on root phenotypes of hydroponically grown Shiokari wild-type and ccd mutant seedlings was also studied. FIG. 16D is a visual determination of root growth with (2.5 μM) zaxinone added to the growth medium and without zaxinone (control) for Shiokari wild-type seedlings and ccd mutant seedlings, d17, d10 and d3. The roots of seedlings grown with zaxinone were visually determined to be increased over the controls, with the wild-type (WT) showing the greatest increase. The visual results are confirmed by the root length and root biomass measurements seen in graphs FIG. 16D.

[3] = system: wild-type and zas mutant rice seedlings; assay: Rescue of zas mutant root phenotype, hydroponically grown rice seedlings; assay type: in vivo, Oryza sativa Nipponbare; settings: hydroponic, 2.5 μM zaxinone
Method: as §2, with “rescue” for “investigation”, “zas” for “the zaxinone effect on CCD”, “phenotype with zaxinone,” for “phenotypes,”
Phenotypic characteristics of hydroponically grown Nipponbare wild-type and zas mutant rice plants were examined to determine the effect of zaxinone treatment on plant growth. Data are means±SD [(FIG. 16A), n=12; (FIG. 16B), n=6; (FIG. 16C), n=4; (FIG. 16D), n=8; Con=Control, Zax=Zaxinone]. Different letters denote significant difference following a One-way ANOVA test (P<0.05).

CC(=O)/C=C/C=C(C)/C=C/C1=C(C)C[C@@H](O)CC1(C)C [zaxinone, 3-OH-β-apo-13-carotenone]
effect on ZAS transcript levels compared between zaxinone and GR24 (Zaxinone Synthase (ZAS); WT rice root tissues): more pronounced effect | ZAS transcript levels in root tissues (Zaxinone Synthase (ZAS); WT rice): negatively impacted | SL transcript levels in roots ([1]; Shiokari wild-type and d3 seedlings, phosphate-starved, 5 μM, 6 h): decreased | transcript levels of D27, CCD7, CCD8 and CO ([1]; WT and zas root tissues, normal phosphorus (+Pi), zaxinone 6 h): nor was there a pronounced effect | expression levels of D27, CCD7, CCD8 and CO ([1]; wild-type roots, 2.5-20 μM zaxinone, 6 h): decreased the expression levels of the wild-type to levels below the WT/Mock control level | transcript levels of D27, CCD7, CCD8 and CO ([1]; zas mutant and wild-type seedlings, phosphate starvation, 5 μM zaxinone): decreased the transcript levels | expression levels of D27, CCD7, CCD8 and CO ([1]; zas mutant roots, increased concentrations (5, 10, 20 μM) vs 2.5 μM, 6 h): Only slight decreases | expression levels of D27, CCD7, CCD8 and CO ([1]; zas mutant roots, lowest level of zaxinone (2.5 μM), 6 h): reduced the expression levels to near the WT/Mock level | relative expression of transcript levels of D27, CCD7, CCD8 and CO ([1]; zaxinone treated zas mutants (zas/Zax), phosphate starvation, 5 μM): at or near levels for the wild-type controls | growth of roots in SL deficient mutants ([2]; SL biosynthesis and perception mutants): did not promote the growth of roots | root growth (root length and root biomass) ([2]; Shiokari wild-type and d17, d10, d3 seedlings, hydroponic, 2.5 μM zaxinone): increasing the root growth for all of the seedlings | root growth ([3]; wild type plants): increase in root growth | crown root length ([3]; zas mutant, three weeks, untreated 7-9 cm): 10-11 cm | root biomass ([3]; zas mutant, three weeks, untreated 12-22 mg DW): 28-35 mg DW | crown root number ([3]; zas mutant, three weeks, untreated 20-23): 27-32
